Measurements from PubChem BioAssay AID1259407 (Chemical Carcinogenesis Research Information System (CCRIS), 2018).
Activity calls are given as the source filed them. How the calls were made is not given here.

Tested on: CCRIS mutagenicity, Ames/micronucleus/aberration tests
Experiment: CCRIS mutagenicity studies
[1] = Test System: AMES SALMONELLA TYPHIMURIUM, Strain/Indicator: TA98, Metabolic Activation: RAT, LIVER, S-9, PCB, Method: PREINCUBATION
[2] = Test System: AMES SALMONELLA TYPHIMURIUM, Strain/Indicator: TA100, Metabolic Activation: NONE, Method: PREINCUBATION
[3] = Test System: AMES SALMONELLA TYPHIMURIUM, Strain/Indicator: TA98, Metabolic Activation: NONE, Method: STANDARD PLATE
[4] = Test System: AMES SALMONELLA TYPHIMURIUM, Strain/Indicator: TA100, Metabolic Activation: NONE, Method: STANDARD PLATE
[5] = Test System: AMES SALMONELLA TYPHIMURIUM, Strain/Indicator: TA100, Metabolic Activation: RAT, LIVER, S-9, AROCLOR 1254, Method: STANDARD PLATE

For `Nc1ncnc2c1ncn2-c1ccc([N+](=O)[O-])cc1[N+](=O)[O-]`, the mutagenic call (Test System: AMES SALMONELLA TYPHIMURIUM, Strain/Indicator: TA98(1,8-DNP), Metabolic Activation: NONE, Method: PREINCUBATION) was “inactive; negative”, the mutagenic call (Test System: AMES SALMONELLA TYPHIMURIUM, Strain/Indicator: TA98(1,8-DNP), Metabolic Activation: RAT, LIVER, S-9, PCB, Method: PREINCUBATION) was “inactive; negative” and the mutagenic call (Test System: AMES SALMONELLA TYPHIMURIUM, Strain/Indicator: TA98(NR), Metabolic Activation: NONE, Method: PREINCUBATION) was “inactive; negative”. For the same compound, the mutagenic call (Test System: AMES SALMONELLA TYPHIMURIUM, Strain/Indicator: TA98(NR), Metabolic Activation: RAT, LIVER, S-9, PCB, Method: PREINCUBATION) was “inactive; negative”, the mutagenic call (Test System: AMES SALMONELLA TYPHIMURIUM, Strain/Indicator: TA98, Metabolic Activation: NONE, Method: PREINCUBATION) was “inactive; negative” and the mutagenic call [1] was “inactive; negative”. The mutagenic call (Test System: AMES SALMONELLA TYPHIMURIUM, Strain/Indicator: TA100(1,8-DNP), Metabolic Activation: RAT, LIVER, S-9, PCB, Method: PREINCUBATION) was “inactive; negative”, the mutagenic call (Test System: AMES SALMONELLA TYPHIMURIUM, Strain/Indicator: TA100(NR), Metabolic Activation: NONE, Method: PREINCUBATION) was “inactive; negative” and the mutagenic call (Test System: AMES SALMONELLA TYPHIMURIUM, Strain/Indicator: TA100(NR), Metabolic Activation: RAT, LIVER, S-9, PCB, Method: PREINCUBATION) was “inactive; negative”. For the same compound, the mutagenic call [2] was “active; positive”, the mutagenic call (Test System: AMES SALMONELLA TYPHIMURIUM, Strain/Indicator: YG1020, Metabolic Activation: RAT, LIVER, S-9, PCB, Method: PREINCUBATION) was “inactive; negative” and the mutagenic call (Test System: AMES SALMONELLA TYPHIMURIUM, Strain/Indicator: YG1021, Metabolic Activation: RAT, LIVER, S-9, PCB, Method: PREINCUBATION) was “inactive; negative”. For the same compound, the mutagenic call (Test System: AMES SALMONELLA TYPHIMURIUM, Strain/Indicator: YG1024, Metabolic Activation: NONE, Method: PREINCUBATION) was “active; positive”, the mutagenic call (Test System: AMES SALMONELLA TYPHIMURIUM, Strain/Indicator: YG1024, Metabolic Activation: RAT, LIVER, S-9, PCB, Method: PREINCUBATION) was “active; positive” and the mutagenic call (Test System: AMES SALMONELLA TYPHIMURIUM, Strain/Indicator: YG1025, Metabolic Activation: NONE, Method: PREINCUBATION) was “inactive; negative”. For the same compound, the mutagenic call (Test System: AMES SALMONELLA TYPHIMURIUM, Strain/Indicator: YG1025, Metabolic Activation: RAT, LIVER, S-9, PCB, Method: PREINCUBATION) was “inactive; negative”, the mutagenic call (Test System: AMES SALMONELLA TYPHIMURIUM, Strain/Indicator: YG1026, Metabolic Activation: NONE, Method: PREINCUBATION) was “inactive; negative” and the mutagenic call (Test System: AMES SALMONELLA TYPHIMURIUM, Strain/Indicator: YG1026, Metabolic Activation: RAT, LIVER, S-9, PCB, Method: PREINCUBATION) was “inactive; negative”. The mutagenic call (Test System: AMES SALMONELLA TYPHIMURIUM, Strain/Indicator: YG1029, Metabolic Activation: NONE, Method: PREINCUBATION) was “active; positive” and the mutagenic call (Test System: AMES SALMONELLA TYPHIMURIUM, Strain/Indicator: YG1029, Metabolic Activation: RAT, LIVER, S-9, PCB, Method: PREINCUBATION) was “active; positive”.

For `COC(=O)C12OC1(C)C(C)(O)OC2=O` (stereo not drawn), the mutagenic call (Test System: AMES SALMONELLA TYPHIMURIUM, Strain/Indicator: TA98, Metabolic Activation: NONE, Method: DISK ASSAY) was “inactive; negative”, the mutagenic call [3] was “inactive; negative” and the mutagenic call (Test System: AMES SALMONELLA TYPHIMURIUM, Strain/Indicator: TA98, Metabolic Activation: RAT, LIVER, S-9, AROCLOR 1254, Method: DISK ASSAY) was “inactive; negative”. The mutagenic call (Test System: AMES SALMONELLA TYPHIMURIUM, Strain/Indicator: TA98, Metabolic Activation: RAT, LIVER, S-9, AROCLOR 1254, Method: STANDARD PLATE) was “active; positive”, the mutagenic call [4] was “inactive; negative” and the mutagenic call [5] was “inactive; negative”.

In the case of `CCC(C)Cl` (stereo not drawn), the mutagenic call (Test System: Mouse lymphoma, Strain/Indicator: L5178Y (tk+/tk-), Metabolic Activation: None, Method: Suspension/plate) is reported as “inactive; negative” and the mutagenic call (Test System: Mouse lymphoma, Strain/Indicator: L5178Y (tk+/tk-), Metabolic Activation: Rat, Liver, S-9, Aroclor 1254, Method: Suspension/plate) is reported as “inactive; negative”.

With `O=C1c2cccc(O)c2C(=O)c2c(O)cc(CO)cc21` the mutagenic call (Test System: AMES SALMONELLA TYPHIMURIUM, Strain/Indicator: TA97A, Metabolic Activation: NONE, Method: STANDARD PLATE) was “active; positive”, the mutagenic call (Test System: AMES SALMONELLA TYPHIMURIUM, Strain/Indicator: TA97A, Metabolic Activation: RAT, LIVER, S-9, AROCLOR 1254, Method: STANDARD PLATE) was “active; positive” and the mutagenic call [3] was “active; positive”. The mutagenic call [1] was “inactive; negative”, the mutagenic call (Test System: AMES SALMONELLA TYPHIMURIUM, Strain/Indicator: TA98, Metabolic Activation: RAT, LIVER, S-9, Method: PREINCUBATION) was “active; positive” and the mutagenic call [2] was “inactive; negative”. For the same compound, the mutagenic call [4] was “inactive; negative”, the mutagenic call [5] was “inactive; negative” and the mutagenic call (Test System: AMES SALMONELLA TYPHIMURIUM, Strain/Indicator: TA100, Metabolic Activation: RAT, LIVER, S-9, PCB, Method: PREINCUBATION) was “active; positive”. The mutagenic call (Test System: AMES SALMONELLA TYPHIMURIUM, Strain/Indicator: TA102, Metabolic Activation: NONE, Method: STANDARD PLATE) was “inactive; negative”, the mutagenic call (Test System: AMES SALMONELLA TYPHIMURIUM, Strain/Indicator: TA102, Metabolic Activation: RAT, LIVER, S-9, AROCLOR 1254, Method: STANDARD PLATE) was “active; positive” and the mutagenic call (Test System: AMES SALMONELLA TYPHIMURIUM, Strain/Indicator: TA102, Metabolic Activation: RAT, LIVER, S-9, Method: PREINCUBATION) was “active; positive”. The mutagenic call (Test System: AMES SALMONELLA TYPHIMURIUM, Strain/Indicator: TA1535, Metabolic Activation: NONE, Method: STANDARD PLATE) was “inactive; negative”, the mutagenic call (Test System: AMES SALMONELLA TYPHIMURIUM, Strain/Indicator: TA1535, Metabolic Activation: RAT, LIVER, S-9, AROCLOR 1254, Method: STANDARD PLATE) was “inactive; negative” and the mutagenic call (Test System: AMES SALMONELLA TYPHIMURIUM, Strain/Indicator: TA1537, Metabolic Activation: NONE, Method: PREINCUBATION) was “active; positive”. For the same compound, the mutagenic call (Test System: AMES SALMONELLA TYPHIMURIUM, Strain/Indicator: TA1537, Metabolic Activation: NONE, Method: STANDARD PLATE) was “active; positive”, the mutagenic call (Test System: AMES SALMONELLA TYPHIMURIUM, Strain/Indicator: TA1537, Metabolic Activation: RAT, LIVER, S-9, Method: PREINCUBATION) was “active; positive” and the mutagenic call (Test System: AMES SALMONELLA TYPHIMURIUM, Strain/Indicator: TA1538, Metabolic Activation: NONE, Method: PREINCUBATION) was “active; positive”. For the same compound, the mutagenic call (Test System: AMES SALMONELLA TYPHIMURIUM, Strain/Indicator: TA1538, Metabolic Activation: NONE, Method: STANDARD PLATE) was “active; positive”, the mutagenic call (Test System: AMES SALMONELLA TYPHIMURIUM, Strain/Indicator: TA1538, Metabolic Activation: RAT, LIVER, S-9, AROCLOR 1254, Method: STANDARD PLATE) was “active; positive” and the mutagenic call (Test System: AMES SALMONELLA TYPHIMURIUM, Strain/Indicator: TA1538, Metabolic Activation: RAT, LIVER, S-9, Method: PREINCUBATION) was “active; positive”. For the same compound, the mutagenic call (Test System: AMES SALMONELLA TYPHIMURIUM, Strain/Indicator: TA1978, Metabolic Activation: NONE, Method: PREINCUBATION) was “active; positive”, the mutagenic call (Test System: AMES SALMONELLA TYPHIMURIUM, Strain/Indicator: TA1978, Metabolic Activation: RAT, LIVER, S-9, Method: PREINCUBATION) was “inactive; negative” and the mutagenic call (Test System: CHINESE HAMSTER V-79, Strain/Indicator: V-79 (HGPRT)/6-THIOGUANINE, Metabolic Activation: NONE) was “inactive; negative”. The mutagenic call (Test System: CHINESE HAMSTER V-79, Strain/Indicator: V-79 (HPRT)/6-THIOGUANINE, Metabolic Activation: NONE) was “inactive; negative”, the mutagenic call (Test System: CHINESE HAMSTER V-79, Strain/Indicator: V-79 (HPRT)/6-THIOGUANINE, Metabolic Activation: RAT, LIVER, S-9, AROCLOR 1254) was “inactive; negative” and the mutagenic call (Test System: CHINESE HAMSTER V-79, Strain/Indicator: V-79/8-AZAGUANINE, Metabolic Activation: NONE, Method: STANDARD PLATE) was “active; positive”. The mutagenic call (Test System: UDS RAT HEPATOCYTES, Strain/Indicator: THY INCORP, Metabolic Activation: NONE, Method: AUTORADIOGRAPHY) was “inactive; negative”, the mutagenic call (Test System: UDS RAT HEPATOCYTES, Strain/Indicator: THY INCORP, Metabolic Activation: NONE, Method: IN VIVO-IN VITRO) was “inactive; negative” and the mutagenic call (Test System: UDS RODENT HEPATOCYTES, Strain/Indicator: THY INCORP (NON-S-PHASE), Metabolic Activation: NONE, Method: AUTORADIOGRAPHY) was “active; positive”.
